In patent publication US5536714A, “Steroid derivatives for the treatment of prostatic hypertrophy their preparation and uses” (Sankyo Company, Limited, priority 1992, dated 1996):

Tested on: Rat 5α-Reductase
Experiment: Rat 5α-Reductase Inhibition Test
Format: biochemical, rat (Sprague-Dawley, ventral prostate)
Conditions: final concentration of test compound 10^-8 M; 1 μM [14C]-testosterone; pH 6.5; 37° C., 15 to 30 minutes
Experimental: The tissue was then homogenized, first with a Polytron (trade mark) homogenizer (manufactured by Kinematica, GmbH) and then with a Teflon-glass homogenizer (Teflon is a trade mark). The suspension of homogenized prostate tissue was then centrifuged (140000×g, 60 minutes), and the sediment was suspended by adding approximately a 5-fold amount of the above buffer. The suspension was again centrifuged (140000×g, 60 minutes). […] This was adjusted to a protein concentration of 30 to 40 mg/ml by the addition of the buffer described above, and the preparation was then stored frozen at -80° C. Measurement of the amount of protein was performed using the Bio-Rad Protein Assay method, and bovine γ-globulin (Cohn Fraction II, manufactured by Sigma) was used for the protein reference standard. […] The mixture was then incubated at 37° C. for 15 to 30 minutes. Testing was also performed on a control group by adding solvent only. Following incubation, 2 ml of ethyl acetate, containing 10 μg each of testosterone, 5α-dihydrotestosterone and androstenedione, were added to stop the reaction. […] The steroid was dissolved in 40 μl of ethyl acetate and spotted onto a thin layer chromatographic plate (LK5DF silica plate, manufactured by Whatman). The plate was then developed twice at room temperature with a mixture of ethyl acetate and cyclohexane (1:1 by volume). The steroid fraction was identified with ultraviolet light and stained using an aqueous solution of 1% w/v […] and 10% w/v sulfuric acid. The radioactivity profiles of the thin layer chromatographic plate were measured using a bio-image analyzer (manufactured by Fuji Photo Film). Enzyme activity was expressed as the proportion of [^14 C]-5α-dihydrotestosterone that was converted from the [^14 C]-testosterone (conversion rate (%)) added. […]

| Compound | Inhibitory Activity [%] |
| --- | --- |
| C[C@]12CC[C@H]3[C@@H](CC=C4C=C(C(=O)O)CC[C@@]43C)[C@@H]1CC[C@@H]2C(=O)NC(c1ccccc1)c1ccccc1 [Example 1, 17β-[N-(Diphenylmethyl)carbamoyl]androsta-3,5-diene-3-carboxylic acid] | 70.6 |
| Cc1ccc(C(C)(C)NC(=O)[C@H]2CC[C@H]3[C@@H]4CC=C5C=C(C(=O)O)CC[C@]5(C)[C@H]4CC[C@]23C)cc1 [Example 11, 17β-{N-[1-(4-Methylphenyl)-1-methylethyl]carbamoyl}androsta-3,5-diene-3-carboxylic acid] | 73.5 |
| COc1ccc(C(C)(C)NC(=O)[C@H]2CC[C@H]3[C@@H]4CC=C5C=C(C(=O)O)CC[C@]5(C)[C@H]4CC[C@]23C)cc1OC [Example 7, 17β-{N-[1-(3,4-Dimethoxyphenyl)-1-methylethyl]carbamoyl}androsta-3,5-diene-3-carboxylic acid] | 70.3 |
| CCC(CC)(NC(=O)[C@H]1CC[C@H]2[C@@H]3CC=C4C=C(C(=O)O)CC[C@]4(C)[C@H]3CC[C@]12C)c1ccccc1 [Example 12, 17β-[N-(1-Ethyl-1-phenylpropyl)carbamoyl]androsta-3,5-diene-3-carboxylic acid] | 74.0 |
| COc1cccc(C(C)(C)NC(=O)[C@H]2CC[C@H]3[C@@H]4CC=C5C=C(C(=O)O)CC[C@]5(C)[C@H]4CC[C@]23C)c1 [Example 9, 17β-{N-[1-(3-Methoxyphenyl)-1-methylethyl]carbamoyl}androsta-3,5-diene-3-carboxylic acid] | 77.9 |
| C[C@]12CC[C@H]3[C@@H](CC=C4C=C(C(=O)O)CC[C@@]43C)[C@@H]1CC[C@@H]2C(=O)NC(c1ccccc1)c1ccc(O)cc1 (stereo partly drawn) [Example 15, 17β-[N-(4-Hydroxybenzhydryl)carbamoyl]androsta-3,5-diene-3-carboxylic acid] | 73.3 |
| CCOc1ccc(C(C)(C)NC(=O)[C@H]2CC[C@H]3[C@@H]4CC=C5C=C(C(=O)O)CC[C@]5(C)[C@H]4CC[C@]23C)cc1 [Example 13, 17β-{N-[1-(4-Ethoxyphenyl)-1-methylethyl]carbamoyl}androsta-3,5-diene-3-carboxylic acid] | 84.3 |
| CC(C)(C)NC(=O)[C@H]1CC[C@H]2[C@@H]3CC=C4C=C(C(=O)O)CC[C@]4(C)[C@H]3CC[C@]12C [Compound B, 17β-t-butylcarbamoylandrosta-3,5-diene-3-carboxylic acid, reference compound] | 28.1 |
| C[C@]12CC[C@H]3[C@@H](CC=C4C=C(C(=O)O)CC[C@@]43C)[C@@H]1CC[C@@H]2C(=O)NC(c1ccc(F)cc1)c1ccc(F)cc1 [Example 16, 17β-[N-(4,4'-Difluorobenzhydryl)carbamoyl]androsta-3,5-diene-3-carboxylic acid] | 81.7 |
| C[C@]12CC[C@H]3[C@@H](CC=C4C=C(C(=O)O)CC[C@@]43C)[C@@H]1CC[C@@H]2C(=O)NC(Cc1ccccc1)c1ccccc1 (stereo partly drawn) [Example 6, 17β-[N-(1,2-Diphenylethyl)carbamoyl]androsta-3,5-diene-3-carboxylic acid] | 89.4 |
| COc1ccc(C(C)(C)NC(=O)[C@H]2CC[C@H]3[C@@H]4CC=C5C=C(C(=O)O)CC[C@]5(C)[C@H]4CC[C@]23C)cc1 [Example 2, 17β-{N-[1-(4-Methoxyphenyl)-1-methylethyl]carbamoyl}androsta-3,5-diene-3-carboxylic acid] | 70.6 |
| COc1ccc(C(NC(=O)[C@H]2CC[C@H]3[C@@H]4CC=C5C=C(C(=O)O)CC[C@]5(C)[C@H]4CC[C@]23C)c2ccccc2)cc1 (stereo partly drawn) [Example 21, 17β-[N-(4-Methoxybenzhydryl)carbamoyl]androsta-3,5-diene-3-carboxylic acid] | 84.9 |
| C[C@]12CC[C@H]3[C@@H](CC=C4C=C(C(=O)O)CC[C@@]43C)[C@@H]1CC[C@@H]2C(=O)N(Cc1ccccc1)Cc1ccccc1 [Example 25, 17β-(N,N-Dibenzylcarbamoyl)androsta-3,5-diene-3-carboxylic acid] | 79.3 |
